EC50 data for 54 compounds are collected here from US20140336182A1, “Aurora Kinase Modulators and Method of Use” (Amgen Inc., priority 2013, published 2014).

Each structure is given as a SMILES string.

The first experiment relates to HeLa cells. In words: HeLa cell 24 hr ploidy assay (DNA content). In kind it is cell-based. To be noted: Homo sapiens, HeLa, 4N ploidy, average, read-out: 24h_4NPloidy EC50_IP (uM Avg). Put shortly: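 HeLa cells (1×10^4/well, MEM+10% FBS) cultured 24 h, treated with serially diluted compounds (0.25% DMSO final), then fixed, permeabilized and stained with Hoechst 33342 (0.5 ug/ml). Imaging quantified % 4N and >4N cells; EC50 IP and EC50 transit derived from dose curves.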
On to `N#Cc1ccc2c(Oc3ccc(Nc4nnc(-c5cccc(O)c5)c5ccccc45)cc3)ccnc2c1` [compound 93], for which the EC50 is 0.025 µM.
On the same count and under the same terms, under `COc1ccccc1-c1nnc(Nc2ccc(Oc3ccnc4cc(C#N)ccc34)cc2)c2ccccc12` [compound 119] stands greater than 1.2 µM; under `COc1cnc2c(Oc3ccc(Nc4nnc(-c5ccc6c(c5)OCCN6C)c5ccccc45)cc3)ccnc2c1` [compound 157], 0.028 µM.
As to `N#Cc1ccc2c(Oc3ccc(Nc4nnc(-c5ccc(C(F)(F)F)cc5)c5ccccc45)cc3)ccnc2c1` [compound 147, 4-((4-((4-(4-(trifluoromethyl)phenyl)-1-phthalazinyl)amino)phenyl)oxy)-7-quinolinecarbonitrile], the EC50 turned out to be 0.02 µM.
The same measure, in the same setting: the same measure for `COc1cnc2c(Oc3ccc(Nc4ncc(-c5ccccc5)c5ccccc45)cc3)ccnc2c1` [compound 144]: 0.155 µM; for `COc1ccc(-c2nnc(Nc3ccc(Oc4ccnc5cc(C#N)ccc45)cc3)c3ccccc23)cc1` [compound 141, 4-((4-((4-(4-(methyloxy)phenyl)-1-phthalazinyl)amino)phenyl)oxy)-7-quinolinecarbonitrile]: 0.025 µM; for `COc1ccc2c(Oc3ccc(Nc4nnc(-c5cccc(OC)n5)c5ccccc45)cc3)ccnc2c1` [compound 100]: 0.02 µM.
Regarding `COc1cnc2c(Oc3ccc(Nc4nnc(-c5ccccc5)cc4C)cc3)ccnc2c1` [compound 107], the EC50 amounted to 0.39 µM.
Regarding `COc1cc2nccc(Nc3ccc(Nc4nnc(-c5ccccc5)c5ccccc45)cc3)c2cn1` [compound 124, N-(7-(methyloxy)-1,6-naphthyridin-4-yl)-N′-(4-phenyl-1-phthalazinyl)-1,4-benzenediamine], the EC50 came out at 0.025 µM.
As to `COc1cc2nccc(Oc3ccc(Nc4nnc(-c5cccc(C)n5)c5ccccc45)cn3)c2cn1` [compound 127], the EC50 was greater than 1.2 µM.
Take `COc1cccc(-c2nnc(Nc3ccc(Oc4ccnc5cc(OC)cnc45)cc3)c3ccccc23)c1` [compound 139]: the EC50 worked out at 0.057 µM.
For `Cc1ccc(-c2nnc(Nc3ccc(Oc4ccnc5cc(C#N)ccc45)cc3)c3ccccc23)nc1` [compound 122], the EC50 was found to be 0.053 µM.
Still for that read-out and setting: under `COc1cnc2c(Oc3ccc(Nc4nnc(-c5ccc(C)s5)c5ccccc45)cc3)ccnc2c1` [compound 138] stands 0.03 µM.
In the case of `COc1cc2ncnc(Oc3ccc(Nc4nnc(-c5ccccc5)c5ccccc45)cc3)c2cc1OC` [compound 98, N-(4-((6,7-bis(methyloxy)-4-quinazolinyl)oxy)phenyl)-4-phenyl-1-phthalazinamine], the EC50 turned out to be 0.019 µM.

Still in this experiment, the particulars now being: Homo sapiens, HeLa, HeLa cells, 4N ploidy, average, read-out: 24h_4NPloidy EC50_IP (uM Avg).
Consider `Cc1ccc(-c2nnc(Nc3ccc(Sc4ccnc5ccoc45)cc3)c3ccccc23)cc1F` [Example 398, 4-(3-Fluoro-4-methylphenyl)-N-(4-(furo[3,2-b]pyridin-7-ylthio)phenyl)phthalazin-1-amine], for which the EC50 amounted to 0.009 µM.
Still for that read-out and setting: under `COc1cnc2c(Oc3ccc(Nc4nnc(N5CCN6CCCCC[C@@H]6C5)c5ccccc45)cc3)ccnc2c1` [compound 604] stands 0.087 µM; under `CCc1cc(-c2ccc(Cl)cc2)nnc1Nc1ccc(Oc2ccnc3cc(OC)cnc23)nc1` [compound 275, 6-(4-chlorophenyl)-4-ethyl-N-(6-(7-methoxy-1,5-naphthyridin-4-yloxy)pyridin-3-yl)pyridazin-3-amine], 0.161 µM; under `COc1cnc2c(Sc3ccc(Nc4nnc(N5CCN(C(C)=O)CC5)c5ccccc45)cc3)ccnc2c1` [compound 608], 0.016 µM.
Consider `COCCOCCn1c(=O)ccc2nccc(Sc3ccc(Nc4nnc(-c5ccc(Cl)cc5)c5ccccc45)cc3)c21` [compound 476], for which the EC50 was found to be 0.14 µM.
`Cc1csc(-c2nnc(Nc3ccc(Oc4ccnc5cc(C#N)ccc45)cc3)c3ccccc23)c1` [compound 170]: the EC50 amounted to 0.007 µM.
Turning to `COc1cnc2c(Sc3ccc(Nc4nnc(N5CC[C@@H](OC)C5)c5ccccc45)cc3)ccnc2c1` [compound 540], the EC50 stood at 0.013 µM.
As for `Oc1cnc2c(Sc3ccc(Nc4nnc(-c5ccccc5)c5ccccc45)cc3)ccnc2c1` [compound 415], the EC50 was 0.015 µM.
Take `c1ccc(-c2nnc(Nc3ccc(Sc4ccnc5ccsc45)cc3)c3ccccc23)cc1` [compound 355]: the EC50 came out at 0.015 µM.
The same measure, in the same setting: the same measure for `COc1ccc2c(Oc3ccc(Nc4nnc(-c5ccccc5)c5c4CCC5)cc3)ccnc2c1` [compound 368]: 0.021 µM; for `COc1cnc2c(Oc3ccc(Nc4nnc(-c5ccc(C(F)(F)F)c(Cl)c5)c5ccccc45)cc3)ccnc2c1` [compound 172, 4-(3-chloro-4-(trifluoromethyl)phenyl)-N-(4-((7-(methyloxy)-1,5-naphthyridin-4-yl)oxy)phenyl)-1-phthalazinamine]: 0.034 µM; for `Clc1ccc(-c2nnc(Nc3ccc(Sc4ccnc5ccsc45)cc3)c3ccccc23)cc1` [compound 332]: 0.001 µM.
Regarding `c1ccc(-c2nnc(Nc3ccc(Oc4ccnc5cc(N6CCOCC6)ccc45)cc3)c3ccccc23)cc1` [Example 42, N-(4-(7-Morpholinoquinolin-4-yloxy)phenyl)-4-phenylphthalazin-1-amine], the EC50 was 0.007 µM.
Regarding `COc1cnc2c(Sc3ccc(Nc4nnc(N5CCCC(C)(C)C5)c5ccccc45)cc3)ccnc2c1` [compound 555], the EC50 was found to be 0.064 µM.
Still for that read-out and setting: the same measure for `N#Cc1ccc2c(Sc3ccc(Nc4nnc(-c5ccc(Cl)cc5)c5ccccc45)cc3)ccnc2c1` [compound 248, 4-((4-((4-(4-chlorophenyl)-1-phthalazinyl)amino)phenyl)thio)-7-quinolinecarbonitrile]: 0.022 µM; for `CCN(CC)C(=O)c1cc2nccc(Oc3ccc(Nc4nnc(-c5ccc(Cl)cc5)c5ccccc45)cc3)c2s1` [compound 270]: 0.082 µM.
Regarding `Clc1ccc(-c2nnc(Nc3ccc(Sc4ccnc5cc(Br)cnc45)cc3)c3ccccc23)cc1` [compound 324], the EC50 stood at 0.029 µM.
Still for that read-out and setting: under `COc1cnc2c(Oc3ccc(Nc4nnc(-c5ccc6cc[nH]c6c5)c5ccccc45)cc3)ccnc2c1` [compound 206] stands 0.002 µM; under `c1ccc2c(-c3ccc4c(c3)OCO4)nnc(Nc3ccc(Oc4ccnc5ccsc45)cc3)c2c1` [compound 279], 0.011 µM; under `COc1cc2nccc(Sc3ccc(Nc4nnc(-c5ccccc5)c5ccccc45)cc3)c2nc1OC` [compound 597], 0.061 µM.
For `Clc1ccc(-c2nnc(Nc3ccc(Oc4ncnc5ccccc45)cc3)c3ccccc23)cc1` [compound 562], the EC50 turned out to be 0.026 µM.
Regarding `COc1cnc2c(Sc3ccc(Nc4nnc(-c5ccccc5)c5ccccc45)cc3F)ccnc2c1` [compound 519], the EC50 came to 0.009 µM.
On to `COc1cnc2c(Oc3ccc(Nc4nnc(-c5cc(C)c(C)s5)c5ccccc45)cc3)ccnc2c1` [compound 260], for which the EC50 was found to be 0.002 µM.
Turning to `COc1ccc2nccc(Oc3ccc(Nc4nnc(-c5cc(C)cs5)c5ccccc45)cc3)c2c1` [compound 269], the EC50 amounted to 0.016 µM.
As for `Cc1cc2nccc(Sc3ccc(Nc4nnc(-c5ccc(Cl)cc5)c5ccccc45)cc3)c2s1` [compound 559], the EC50 is 0.018 µM.
With `COc1cnc2c(N(C)c3ccc(Nc4nnc(-c5ccccc5)c5ccccc45)cc3)ccnc2c1` [compound 51, N-methyl-N-(7-(methyloxy)-1,5-naphthyridin-4-yl)-N′-(4-phenyl-1-phthalazinyl)-1,4-benzenediamine], the EC50 is 0.372 µM.
The same measure, in the same setting: under `CCc1cc(-c2ccc(C)cc2)nnc1Nc1ccc(Nc2ccnc3cc(OC)cnc23)cc1` [compound 595] stands 0.083 µM; under `COc1cc(F)cc2nccc(Sc3ccc(Nc4nnc(-c5cc(C)cs5)c5ccccc45)cc3)c12` [compound 440], 0.029 µM; under `COc1cc(OC)c2c(Oc3ccc(Nc4nnc(-c5cc(C)cs5)c5ccccc45)cc3)ncnc2c1` [compound 573], 0.011 µM.
On the same count and under the same terms, under `COc1cnc2c(Sc3ccc(Nc4nnc(N5CCc6sccc6C5)c5ccccc45)cc3)ccnc2c1` [compound 578] stands 0.007 µM; under `N#Cc1cc2nccc(Sc3ccc(Nc4nnc(-c5ccc6c(c5)OCO6)c5ccccc45)cc3)c2s1` [compound 457], 0.021 µM; under `COc1cnc2c(Oc3ccc(Nc4nnc(-c5ccc6c(c5)CCO6)c5ccccc45)cc3)ccnc2c1` [compound 168, 4-(2,3-dihydro-1-benzofuran-5-yl)-N-(4-((7-(methyloxy)-1,5-naphthyridin-4-yl)oxy)phenyl)-1-phthalazinamine], 0.007 µM.
Still for that read-out and setting: the same measure for `COc1cnc2c(Oc3ccc(Nc4nnc(-c5cc(CF)cs5)c5ccccc45)cc3)ccnc2c1` [Example 408, 4-(4-(Fluoromethyl)thiophen-2-yl)-N-(4-(7-methoxy-1,5-naphthyridin-4-yloxy)phenyl)phthalazin-1-amine]: 0.025 µM.
On to `c1ccc(-c2nnc(Nc3ccc(Oc4ccnc5ccc(N6CCOCC6)cc45)cc3)c3ccccc23)cc1` [compound 264], for which the EC50 was 0.387 µM.
In the case of `COc1cnc2c(Oc3ccc(Nc4nnc(-c5ccc(C)c(F)c5)c5ccccc45)cc3)ccnc2c1` [compound 243], the EC50 is 0.006 µM.
Turning to `COc1cnc2c(Oc3ccc(Nc4nnc(-c5cncnc5)c5ccccc45)cc3)ccnc2c1` [compound 215, N-(4-((7-(methyloxy)-1,5-naphthyridin-4-yl)oxy)phenyl)-4-(5-pyrimidinyl)-1-phthalazinamine], the EC50 is greater than 1.2 µM.
Still for that read-out and setting: the same measure for `Fc1cc(F)c2c(Oc3ccc(Nc4nnc(-c5ccccc5)c5ccccc45)cc3)ccnc2c1` [compound 276]: 0.054 µM; for `COC1CCN(c2nnc(Nc3ccc(Oc4ccnc5ccoc45)cc3)c3ccccc23)CC1` [compound 478]: 0.381 µM; for `COc1cnc2c(Sc3ccc(Nc4nnc(-c5ccc(OC)nc5)c5ccccc45)cc3)ccnc2c1` [compound 583]: 0.005 µM.

The experiment is the same for the next values; noted with them: Homo sapiens, HeLa, HeLa cells, average, read-out: 24h_4NPloidy EC50_IP (uM Avg).
Regarding `CCc1cc(-c2ccccc2OC)nnc1Nc1ccc(Sc2ccnc3cc(OC)cnc23)cc1` [compound 609], the EC50 worked out at 0.055 µM.
